Experimental data published in ChEMBL document CHEMBL1143383, “Novel heteroaromatic organofluorine inhibitors of fructose-1,6-bisphosphatase” (J Med Chem, 2009).

These compounds were tested against T1, Fructose-1,6-bisphosphatase 1 (Mus musculus, UniProt Q9QXD6) (assay: Inhibition of fructose-1,6-bisphosphatase in mouse liver homogenates by colorimetric phosphate assay).
T1 sequence (Q9QXD6 whole entry): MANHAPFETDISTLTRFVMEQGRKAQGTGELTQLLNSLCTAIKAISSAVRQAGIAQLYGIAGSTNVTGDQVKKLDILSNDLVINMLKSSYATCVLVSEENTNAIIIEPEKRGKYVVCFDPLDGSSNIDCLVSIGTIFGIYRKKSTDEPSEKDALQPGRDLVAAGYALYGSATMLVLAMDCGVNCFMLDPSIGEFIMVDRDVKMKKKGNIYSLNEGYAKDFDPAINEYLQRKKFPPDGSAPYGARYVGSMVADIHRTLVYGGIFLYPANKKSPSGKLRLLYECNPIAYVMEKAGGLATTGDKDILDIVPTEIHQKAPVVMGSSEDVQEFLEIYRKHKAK
Type: tissue-based

IC50 [µM] | SMILES
177 | O=[N+]([O-])c1ccc(S(=O)(=O)n2c3ccccc3c3ccccc32)cc1
> 300 | O=S(=O)(c1ccc2ccccc2c1)n1c2ccccc2c2ccccc21
185 | O=[N+]([O-])c1ccc(S(=O)(=O)n2ccc3ccccc32)cc1
> 300 | COc1ccc(S(=O)(=O)n2ccc3ccccc32)cc1
> 300 | O=C(c1ccc([N+](=O)[O-])cc1)n1ccc2ccccc21
246 | COc1ccc(S(=O)(=O)n2cccc2)cc1
> 300 | O=S(=O)(c1ccc2ccccc2c1)n1ccc2ccccc21
129 | O=C(c1ccc(F)cc1)n1ccc2ccccc21
3.09 | O=C(c1ccc(C(F)(F)F)cc1)n1ccc2ccccc21
119 | O=S(=O)(c1ccccc1)n1ccc2ccccc21
> 250 | COc1ccc(S(=O)(=O)n2c3ccccc3c3ccccc32)cc1

More lines, now with the values behind:

SMILES | IC50 [µM]
CCOC(=O)CC(O)(c1cccn1C)C(F)(F)F (stereo not drawn) | 41.8
Fc1ccc(-c2cc(-c3ccc(F)cc3)n(-c3ccccc3)n2)cc1 | 151
O=[N+]([O-])c1ccc(-n2nc(-c3ccccc3)cc2-c2ccccc2)cc1 | > 300
CCOC(=O)CC(O)(c1ccc[nH]1)C(F)(F)F (stereo not drawn) | 25.7
Fc1ccc(-c2cc(-c3ccc(F)cc3)n(-c3cccc(C(F)(F)F)c3)n2)cc1 | 75.5
CCOC(=O)C(O)(c1cn(C)c2ccccc12)C(F)(F)F (stereo not drawn) | 11.9
CCOC(=O)CC(O)(c1[nH]c(C)cc1C)C(F)(F)F (stereo not drawn) | 4.81
CCOC(=O)C(O)(c1ccc[nH]1)C(F)(F)F (stereo not drawn) | 25.7
Cc1ccccc1S(=O)(=O)n1cccc1 | > 250
COc1ccc2[nH]c3c(C)ccc(C)c3c2c1 | > 300
CCOC(=O)C(O)(c1c[nH]c2ccc(I)cc12)C(F)(F)F (stereo not drawn) | 13.3
COC(=O)c1ccc2[nH]c3ccccc3c2c1 | > 300
Cc1ccc(S(=O)(=O)n2cccc2)cc1 | > 300
O=[N+]([O-])c1ccc(S(=O)(=O)n2cccc2)cc1 | 109
CCOC(=O)C(O)(c1c[nH]c2ccc(C)cc12)C(F)(F)F (stereo not drawn) | 36
O=S(=O)(c1ccccc1)n1cccc1 | 76.2
FC(F)(F)c1cccc(-n2nc(-c3ccccc3)cc2-c2ccccc2)c1 | 6.04
